Among the data in patent EP0099121A2, “Pharmaceutical compositions” (Bristol-Myers Company, priority 1982, dated 1984) are ED50 values, retold here.

The subject of the test is Gastric Acid Output. In words: Gastric antisecretory activity in the Gastric Fistula Rat (Table 2 title: Two-Hour Pylorus Ligated Rat). The class given is in vivo, Long Evans rats. To be noted: numbers in parentheses are the 95% confidence limits. The procedure:
Male Long Evans rats weighing about 240-260 grams at the time of cannula implantation are used. The design and implantation of the stainless steel cannula into the anterior wall of the fore-stomach are carried out essentially as described by Pare et al. [Laboratory Animal Science, 27, 244 (1977)]. The fistula components are designed and the operative procedure is carried out exactly as described in the above reference. Post operatively the animals are individually housed in solid bottom cages with sawdust and are allowed food and water ad libitum throughout the entire recovery period. Animals are not used for test purposes for at least 15 days after the operative procedure.
The animals are fasted but allowed water ad libitum for 20 hours before the testing procedure is to begin. Immediately prior to collection, the cannula is opened and the stomach washed gently with 30-40 mL of warm saline or distilled water to remove any residual contents. The catheter is then screwed into the cannula in place of the plugging screw and the rat is placed in a clear plastic rectangular cage measuring 40 cm long, 15 cm wide and 13 cm high. The bottom of the cage has a slit approximately 1.5 cm wide and 25 cm long running down the center to accommodate the catheter which hangs through it. In this way the rat is not restricted and can move freely about the cage during collection periods. The remainder of the assay is carried out as described by Ridley et al. [Research Comm. Chem. Path. Pharm., 17, 365 (1977)].
Gastric secretions collected during the first hour after washing the stomach are discarded as they may be contaminated. For oral evaluation, the catheter is then removed from the cannula and replaced with the plugging screw. Water (2 mL/kg) is administered orally via gastric intubation and the animal is returned to the cage for 45 minutes. After this time the plugging screw is removed and replaced with a catheter to which a small plastic vial has been attached to collect the gastric secretions. A two hour sample is collected (this represents the control secretion), the catheter removed and replaced with the plugging screw. The test drug is now administered orally in a volume of 2 mL/kg via gastric intubation. Forty-five minutes later the plugging screw is again removed, replaced with the catheter attached to a small plastic vial and another 2 hour sample is collected. The secretions in the second sample are compared to those of the control sample in order to determine the effects of the test drug.
When test compounds are to be evaluated parenterally, the animal is injected ip or sc with the test compound vehicle in a volume of 2 mL/kg immediately after discarding the initial 60 minute collection. A two hour sample is collected (control secretion) and the animals are injected either ip or sc with the test compound in a volume of 2 mL/kg. An additional two hour sample is collected and its secretions are compared to those of the control period to determing drug effects.
The samples are centrifuged in a graduated tube for volume determination. Titratable acidity is measured by titrating a one mL sample to pH 7.0 with 0.02N NaOH, using an Autoburet and an electrometric pH meter (Radiometer). Titratable acid output is calculated in microequivalents by multiplying the volume in milliliters by the acid concentration in milliequivalents per liter.
Results are expressed as percent inhibition relative to control readings. Dose response curves are constructed and ED values are calculated by regression analyses. At least three rats are used at each dosage level and a minimum of three dosage levels are utilized for determination of a dose response curve.

Setting [1] is: Rattus norvegicus, ip, Route of Administration i.p., read-out: ED50.
Setting [2] is: Rattus norvegicus, sc, Route of Administration s.c., read-out: ED50.

Read-outs that look alike come from different tables or passages of the source.

With “3-{2-[(5-Dimethylaminomethyl-2-furyl)methy1thio]ethylamino}-4-dodecylamino-1,2,5-thiadiazole 1,1-dioxide [Example 106]”, the ED50 (Route of Administration s.c.) was roughly 80 µmol/kg.
For the molecule “3-{2-[(5-Dimethylaminomethyl-2-furyl)methylthio]-ethylamino}-4-pieridino-1,2,5-thiadiazole 1,1-dioxide [Example 102]”, the ED50 (Route of Administration s.c.) was roughly 15 µmol/kg.
Still for that read-out and setting: with “3-{2-[(5-Dimethylaminomethyl-2-furyl)methylthio]ethyl- amino}-4-dinethylamino-1,2,5-thiadiazole 1,1-dioxide [Example 28]” the figure was 1.39 (0.39-4.91) μmoles/kg; with `CNCc1ccc(CSCCNC2=NS(=O)(=O)N=C2NC)o1` [20 A], 1.15 (0.32-3.7) μmoles/kg.
Regarding `CNC1=NS(=O)(=O)N=C1NCCCOc1cccc(CN2CCCC2)c1` [144 a], where the note is “Route of Administration s.c.”, the ED50 is listed as 0.095 (0.033-0.30) μmoles/kg.
As for `CNC1=NS(=O)(=O)N=C1NCCCOc1cccc(CN2CCC(C)CC2)c1` [144 b], the ED50 (Route of Administration s.c.) is 0.025 (0.0087-0.065) μmoles/kg.
For the molecule `CNC1=NS(=O)(=O)N=C1NCCCOc1cccc(CN2CCOCC2)c1` [144 d], for the setting “Route of Administration s.c.”, the ED50 was 0.91 (0.36-3.2) μmoles/kg.
Still for that read-out and setting: with `Nc1n[s+]([O-])nc1NCCCOc1cccc(CN2CCCC2)c1` (stereo not shown) [145 a] the figure was 0.056 (0.021-0.18) μmoles/kg; with `CC1CCN(Cc2cccc(OCCCNc3n[s+]([O-])nc3N)c2)CC1` (stereo not shown) [145 b], roughly 0.06 µmol/kg.
On to `NC1=NS(=O)(=O)N=C1NCCCOc1cccc(CN2CCOCC2)c1` [146 d], for which the ED50 (Route of Administration s.c.) is given as 0.28 (0.066-1.21) μmoles/kg.
Turning to `C#CCNC1=NS(=O)(=O)N=C1NCCSCc1nc[nH]c1C` [Example 1, 3-{2-[(5-Methyl-1H-imidazol-4-yl)methylthio}ethylamino}-4-(2-propynyl)amino-1,2,5-thiadiazole 1,1-dioxide], under setting [1], the ED50 is 12.5 µmol/kg.
Consider `CNC1=NS(=O)(=O)N=C1NCCSCc1nc[nH]c1C` [Example 2], for which, under setting [2], the ED50 was roughly 100 µmol/kg.
Turning to `Cc1[nH]cnc1CSCCNC1=NS(=O)(=O)N=C1NCCSCc1csc(N=C(N)N)n1` [Example 3, 3-{2-[(2-Guanidinothiazol-4-yl)methylthio]ethylanino}-4-{2-[(5-methyl-1H-imidazol-4-yl)methylthio]ethylamino}-1,2,5-thiadiazole 1,1-dioxide], under setting [1], the ED50 stood at 0.46 µmol/kg.
Consider `Cc1[nH]cnc1CSCCNC1=NS(=O)(=O)N=C1O` [Example 7, 3-Hydroxy-4-{2-[(5-methyl-1H-imidazol-4-yl)methylthio]-ethylamino}-1,2,5-thiadiazole 1,1-dioxide], for which, under setting [1], the ED50 amounted to 31.1 µmol/kg.
Consider `C#CCNC1=NS(=O)(=O)N=C1NCCSCc1ccc(CN(C)C)o1` [Example 13, 3-{2-[(5-Dimethylaminomethyl-2-furyl)methvlthio]ethyl-amino}-4-(2-proynyl)amino-1,2,5-thiadiazole 1,1-dioxide], for which, under setting [2], the ED50 came to 0.46 µmol/kg.
For the molecule `C#CCN(C)Cc1ccc(CSCCNC2=NS(=O)(=O)N=C2NC)o1` [Example 14, 3-Methylamino-4-{2-[(5-([N-methyl-N-(2-propynyl)amino]-methyl}-2-furyl)methylthio]ethylamino}-12,5-thiadiazole 1,1-dioxide], under setting [2], the ED50 is roughly 25 µmol/kg.
With `CN(C)Cc1ccc(CSCCNC2=NS(=O)(=O)N=C2O)o1` [Example 17, 3-{2-[(5-Dimethylaminomethyl-2-furyl)methylthio]ethylamino}-4-hydroxy^-1,2,5-thiadiazole 1,1-dioxide], the ED50 under setting [2] worked out at 33 µmol/kg.
On the same count and under the same terms, with `C=CCNC1=NS(=O)(=O)N=C1NCCSCc1ccc(CN(C)C)o1` [Example 19, 3-Allylamino-4-{2-[(5-dimethylaminomethyl-2-furyl)methyl-thio]ethylamino}-1,2,5-thiadiazole 1,1-dioxide] the figure was 0.34 µmol/kg; with `CNC1=NS(=O)(=O)N=C1NCCCCc1ccc(CN(C)C)o1` [Example 21, 3-{4-(5-Dimethylaminomethyl-2-furyl)butylamino}-4-methvlamino-1,2,5-thiadiazole 1,1-dioxide], 0.3 µmol/kg.
As to `C#CCNC1=NS(=O)(=O)N=C1NCCSCc1csc(N=C(N)N)n1` [Example 32, 3-{2-[(2-Guanidinothiazol-4-yl)methyithio]ethylamino}-4-(2-propynyl)amino-1,2,5-thiadiazole 1,1-dioxide], the ED50 under setting [1] was 0.08 µmol/kg.
With `CNC1=NS(=O)(=O)N=C1NCCSCc1csc(CN(C)C)n1` [Example 33, 3-{2-[(2-Dimethylaminomethyl-4-thiazolyl)methylthio]ethyl-amino}-4-methylamino-1,2,5-thiadiazole 1,1-dioxide], under setting [2], the ED50 amounted to 0.57 µmol/kg.
On to `N=C(N)Nc1nc(CSCCNC2=NS(=O)(=O)N=C2NCCO)cs1` [Example 36, 3-{2-[(2-Guanidinothiazol-4-yl)methylthio]ethylamino}-4-(2-hydroxyethylamino)-1,2,5-thiadiazole 1,1-dioxide], for which the ED50 under setting [2] came to 1.59 µmol/kg.
Same read-out and setting: with `CN(C)Cc1ccc(CSCCNC2=NS(=O)(=O)N=C2NN)o1` [Example 51] the figure was 55 µmol/kg.
With `CNC1=NS(=O)(=O)N=C1NCCSCc1ccccn1` [Example 52, 3-Methylamino-4-{2-[(2-pyridyl)methylthio]ethylamino}-1,2,5-thiadiazole 1,1-dioxide], under setting [2], the ED50 was roughly 350 µmol/kg.
On to `CCNc1n[s+]([O-])nc1NCCSCc1ccc(CN(C)C)o1` (stereo not shown) [Example 84, 3-{2-[(5-Dimethylaminomethyl-2-furyl)methylthio]ethylartino}-4-ethylamino-1,2,5-thiadiazole 1-oxide], for which the ED50 under setting [2] amounted to 0.15 µmol/kg.
As for `CCCNC1=NS(=O)(=O)N=C1NCCSCc1ccc(CN(C)C)o1` [Example 85, 3-{2-[(5-Dimethylaminomethyl-2-furyl)methylthio]ethylamino}-4-propylamino-1,2,5-thiadiazole 1,1-dioxide], the ED50 under setting [2] amounted to 0.14 µmol/kg.
With `CN(C)Cc1ccc(CSCCNC2=NS(=O)(=O)N=C2NCc2ccccc2)o1` [Example 89, 3-Benzylamino-4-{2-[(5-dimethylaminomethyl-2-furyl)-methylthio]ethylamino}-1,2,5-thiadiazole 1,1-dioxide], under setting [2], the ED50 stood at 0.25 µmol/kg.
On to `CNC1=NS(=O)(=O)N=C1NCCSCc1cccc(CN(C)C)c1` [Example 90, 3-{2-[(3-{Dimethylaminomethyl}phenyl)methylthio]ethylamino}-4-methylamino-1,2,5-thiadiazole 1,1-dioxide], for which the ED50 under setting [2] came out at 0.86 µmol/kg.
`CN(C)Cc1cccc(CSCCNc2n[s+]([O-])nc2N)c1` (stereo not shown) [Example 91, 3-Arnino-4-{2-[(3-{dinethylaninomethyl}henyl)methvlthio}-ethvlamino}-1,2,5-thiadiazole 1-oxide]: the ED50 under setting [2] is 1.3 µmol/kg.
With `CNc1n[s+]([O-])nc1NCCSCc1ccc(CN(C)C)s1` (stereo not shown) [Example 92, 3-{2-[(5-Dimethylaminomethyl-2-thienyl)methylthio]-ethylamino}-4-methylamino-1,2,5-thiadiazole 1-oxide], under setting [2], the ED50 was 0.24 µmol/kg.
For `CN(C)Cc1ccc(CCCCNC2=NS(=O)(=O)N=C2N)o1` [Example 93, 3-Amino-4-{4-(5-dimethylaminomethyl-2-furyl)butylamino}-1,2,5-thiaciazole 1,1-dioxide], the ED50 under setting [2] came out at 0.14 µmol/kg.
For the molecule `CN(C)Cc1nc(CSCCNC2=NS(=O)(=O)N=C2N)cs1` [Example 94, 3-A-mino-4-{2-[(2-dinethylaminomethyl-4-thiazolyl)methylthio)-ethylamino}-1,2,5-thiadiazole 1,1-dioxide], under setting [2], the ED50 came out at 0.44 µmol/kg.
With `CNC1=NS(=O)(=O)N=C1NCCSCc1cnc(NC(=N)N)s1` [Example 95, 3-{2-[(2-Guanidinothiazol-5-yl)methylthio]ethylamino}-4-methylamino-1,2,5-thiadiazole 1,1-dioxide], under setting [2], the ED50 is roughly 15 µmol/kg.
For `NC(N)=Nc1ncc(CSCCNc2n[s+]([O-])nc2N)s1` (stereo not shown) [Example 96, 3-Psnino-4-{2-[(2-guanidinothiazol-5-yl)methylthio]-ethylamino}-1,2,5-thiadiazole 1-oxide], under setting [2], the ED50 was roughly 15 µmol/kg.
